Results on six compounds are retold here after ChEMBL document CHEMBL3856287, “Synthesis of novel tetrazole derivatives and evaluation of their antifungal activity” (Bioorg Med Chem, 2016).

The nature of data set [1]: Antifungal activity against Colletotrichum coccodes MC1 assessed as radial growth inhibition at 64 ug/ml after 5 to 7 days relative to control. The class given is functional.
For data set [2], the system named is Aspergillus niger. In words: Antifungal activity against Aspergillus niger ATCC 16404 assessed as radial growth inhibition at 64 ug/ml after 5 to 7 days relative to control. The class given is functional. The conditions noted are these: read-out: GI.
Data set [3] can be described thus: Antifungal activity against Fusarium oxysporum MF5 assessed as radial growth inhibition at 64 ug/ml after 5 to 7 days relative to control. The class given is functional.
A short description of data set [4]: Antifungal activity against Fusarium sambucinum MF1 assessed as radial growth inhibition at 64 ug/ml after 5 to 7 days relative to control. The class given is functional.
Data set [5] has as its system Candida albicans. In words: Antifungal activity against Candida albicans ATCC 90028 assessed as growth inhibition at 4 ug/ml after 48 hrs by broth microdilution method relative to control. The class given is functional. To be noted: ATCC 90028, 48 h, read-out: GI. Background: Dilution methods test growth across graded concentrations, often in twofold steps.
For data set [6], the system named is Candida albicans. In words: Antifungal activity against Candida albicans ATCC 90028 assessed as growth inhibition at 0.5 ug/ml after 48 hrs by broth microdilution method relative to control. It is filed as functional. To be noted: ATCC 90028, 48 h, read-out: GI.
Data set [7] has as its system Candida albicans. Nature of the data set: Antifungal activity against Candida albicans ATCC 90028 assessed as growth inhibition at 0.0625 ug/ml after 48 hrs by broth microdilution method relative to control. It is filed as functional. The conditions noted are these: ATCC 90028, 48 h, read-out: GI.
Data set [8] concerns Candida albicans. Nature of the data set: Antifungal activity against Candida albicans ATCC 90028 assessed as growth inhibition at 0.0313 ug/ml after 48 hrs by broth microdilution method relative to control. The class given is functional. The conditions noted are these: ATCC 90028, 48 h, read-out: GI.
Data set [9] relates to Candida albicans. Nature of the data set: Antifungal activity against Candida albicans ATCC 90028 assessed as growth inhibition at 0.125 ug/ml after 48 hrs by broth microdilution method relative to control. It is filed as functional. To be noted: ATCC 90028, 48 h, read-out: GI.
The test system of data set [10] is Candida albicans. Nature of the data set: Antifungal activity against Candida albicans ATCC 90028 assessed as growth inhibition at 16 ug/ml after 48 hrs by broth microdilution method relative to control. The conditions noted are these: ATCC 90028, 48 h, read-out: GI. It is filed as functional.
The subject of data set [11] is Candida albicans. Nature of the data set: Antifungal activity against Candida albicans ATCC 90028 assessed as growth inhibition at 8 ug/ml after 48 hrs by broth microdilution method relative to control. The class given is functional. To be noted: ATCC 90028, 48 h, read-out: GI.
The test system of data set [12] is Candida albicans. In words: Antifungal activity against Candida albicans ATCC 90028 assessed as growth inhibition at 2 ug/ml after 48 hrs by broth microdilution method relative to control. The class given is functional. To be noted: ATCC 90028, 48 h, read-out: GI.
The test system of data set [13] is Candida albicans. In words: Antifungal activity against Candida albicans ATCC 90028 assessed as growth inhibition at 1 ug/ml after 48 hrs by broth microdilution method relative to control. The class given is functional. The conditions noted are these: ATCC 90028, 48 h, read-out: GI.
For data set [14], the system named is Candida albicans. Nature of the data set: Antifungal activity against Candida albicans ATCC 90028 assessed as growth inhibition at 0.25 ug/ml after 48 hrs by broth microdilution method relative to control. It is filed as functional. The conditions noted are these: ATCC 90028, 48 h, read-out: GI.
Data set [15] relates to Candida albicans. Nature of the data set: Antifungal activity against Candida albicans ATCC 90028 after 18 to 48 hrs in presence of 2.5 ug/ml fluconazole by checkerboard assay. It is filed as functional.
For data set [16], the system named is Candida albicans. In words: Antifungal activity against Candida albicans ATCC 90028 after 18 to 48 hrs in presence of 5 ug/ml fluconazole by checkerboard assay. The class given is functional.
Data set [17] has as its system Candida albicans. In words: Antifungal activity against Candida albicans ATCC 90028 assessed as fractional inhibitory concentration after 18 to 48 hrs in presence of fluconazole by checkerboard assay. The class given is functional.
Data set [18] is described as follows: Toxicity in last instar larval stage of Galleria mellonella assessed as survival at 16 ug/ml after 96 hrs.
For data set [19], the system named is Candida albicans. Nature of the data set: Antifungal activity against Candida albicans ATCC 90028 assessed as growth inhibition after 48 hrs in presence of osmotic protector 0.8 M sorbitol by broth microdilution method. The class given is functional. To be noted: ATCC 90028, 48 h.
The subject of data set [20] is Candida albicans. In words: Fungicidal activity against Candida albicans ATCC 90028 at MIC after 7 days in presence of osmotic protector 0.8 M sorbitol by broth microdilution method. The class given is functional.
Data set [21] has as its system Candida albicans. Nature of the data set: Antifungal activity against Candida albicans ATCC 90028 after 18 to 48 hrs in presence of 10 ug/ml fluconazole by checkerboard assay. It is filed as functional.
Data set [22] deals with Candida albicans. In words: Fungicidal activity against Candida albicans ATCC 90028 at MIC after 48 hrs in presence of osmotic protector 0.8 M sorbitol by broth microdilution method. The class given is functional.
The test system of data set [23] is Candida albicans. In words: Antifungal activity against Candida albicans ATCC 90028 after 18 to 48 hrs in presence of 40 ug/ml fluconazole by checkerboard assay. It is filed as functional.
The subject of data set [24] is Candida albicans. Nature of the data set: Antifungal activity against Candida albicans ATCC 90028 after 18 to 48 hrs in presence of 1.25 ug/ml fluconazole by checkerboard assay. The class given is functional.
Data set [25] deals with Candida albicans. In words: Antifungal activity against Candida albicans ATCC 90028 after 18 to 48 hrs in presence of 20 ug/ml fluconazole by checkerboard assay. It is filed as functional.
The subject of data set [26] is Candida albicans. Nature of the data set: Antifungal activity against Candida albicans ATCC 90028 assessed as growth inhibition after 7 days in presence of osmotic protector 0.8 M sorbitol by broth microdilution method. It is filed as functional. The conditions noted are these: ATCC 90028, 168 h.
In data set [27] the test system is Candida albicans. In words: Antifungal activity against Candida albicans ATCC 90028 assessed as growth inhibition after 18 to 48 hrs in presence of 1.25 ug/ml fluconazole by checkerboard assay. The class given is functional.
In data set [28] the test system is Candida albicans. In words: Antifungal activity against Candida albicans ATCC 90028 after 18 to 48 hrs in presence of 80 ug/ml fluconazole by checkerboard assay. The class given is functional.
The test system of data set [29] is Candida albicans. Nature of the data set: Antifungal activity against Candida albicans ATCC 90028 assessed as fractional inhibitory concentration index after 18 to 48 hrs in presence of fluconazole by checkerboard assay. It is filed as functional.
Data set [30] relates to Candida albicans. In words: Antifungal activity against Candida albicans ATCC 90028 assessed as growth inhibition after 48 hrs by broth microdilution method. It is filed as functional. To be noted: ATCC 90028, 48 h.

`Clc1ccc(-c2nnn(CCCSc3nc4ccccc4s3)n2)cc1`: the growth inhibition (GI) in [1] turned out to be 36.7%; in [3] it was 0%; in data set [4] it was 5%. The inhibition of growth at 64 µg/mL in data set [2] turned out to be 0%.

For `Cc1ccc(-c2nnn(CCCSc3nc4ccccc4s3)n2)cc1`, the inhibition of growth at 4 µg/mL in data set [5] is 98.9%. The inhibition of growth at 0.5 µg/mL in [6] was determined as 98.7%. Also, the inhibition of growth at 0.0625 µg/mL in data set [7] worked out at 98.8%. The growth inhibition (GI) in data set [1] is 33.4%; in data set [3], 0%; in [4] it was 0%. Moreover, the inhibition of growth at 64 µg/mL in data set [2] worked out at 3%. In addition, in [8], the inhibition of growth at 0.0313 µg/mL is 98.8%. In data set [9], the inhibition of growth at 0.125 µg/mL is 98.8%. Besides, the inhibition of growth at 16 µg/mL in data set [10] worked out at 98.8%. For the same compound, in data set [11], the inhibition of growth at 8 µg/mL is 99%. For the same compound, the inhibition of growth at 2 µg/mL in data set [12] was 98.6%. For the same compound, the inhibition of growth at 1 µg/mL in data set [13] is 98.9%. Moreover, the inhibition of growth at 0.25 µg/mL in data set [14] came out at 98.6%.

`Clc1ccc(-c2nnn(CCCSc3nc4ccccc4o3)n2)cc1`: in data set [5], the inhibition of growth at 4 µg/mL came out at 98.7%. In addition, in [6], the inhibition of growth at 0.5 µg/mL came out at 99.4%. Moreover, the Activity in data set [15] is reported as 100%; in data set [16], 99%; in [20] it was 100%; in [21], 99%; in data set [22] it was 100%; in [23], 100%. For the same compound, the Activity in [24] is given as 100%; in data set [25] it was 98%; in data set [28], 100%. Moreover, in data set [7], the inhibition of growth at 0.0625 µg/mL came out at 99.1%. Also, the growth inhibition (GI) in data set [1] was 46.7%; in data set [3] it was 4%; in data set [4], 14.5%. For the same compound, in data set [2], the inhibition of growth at 64 µg/mL worked out at 11.8%. For the same compound, the Ratio in [17] is 0.08. Further, in data set [18], the survival at 96 h was 100%. Besides, the inhibition of growth at 0.0313 µg/mL in data set [8] was determined as 99%. The inhibition of growth at 0.125 µg/mL in data set [9] stood at 99.1%. For the same compound, the MIC in data set [19] was 1 µg/mL; in data set [26], 1 µg/mL; in [27] it was 1.25 µg/mL; in data set [30], over 16 µg/mL. Moreover, in data set [10], the inhibition of growth at 16 µg/mL came out at 99.2%. In addition, in [11], the inhibition of growth at 8 µg/mL stood at 99.4%. The inhibition of growth at 2 µg/mL in [12] was determined as 99.5%. In data set [13], the inhibition of growth at 1 µg/mL worked out at 99.3%. In [29], the “fractional inhibitory concentration index (FICI)” value was 5.08. Besides, in data set [14], the inhibition of growth at 0.25 µg/mL was 99.2%.

`Clc1ccccc1-c1nnn(CCCSc2nc3ccccc3s2)n1`: the inhibition of growth at 4 µg/mL in data set [5] was 98.7%. The inhibition of growth at 0.5 µg/mL in data set [6] worked out at 98.6%. In addition, in [7], the inhibition of growth at 0.0625 µg/mL worked out at 98.9%. The figures for the growth inhibition (GI) in data set [1], in data set [3] and in [4] were 16.7%, 0% and 5%, respectively. Further, the inhibition of growth at 64 µg/mL in data set [2] worked out at 0%. Also, the inhibition of growth at 0.0313 µg/mL in data set [8] came to 98.8%. For the same compound, the inhibition of growth at 0.125 µg/mL in [9] was 99%. For the same compound, the inhibition of growth at 16 µg/mL in data set [10] is 98.8%. Further, the inhibition of growth at 8 µg/mL in data set [11] came to 98.6%. Moreover, the inhibition of growth at 2 µg/mL in [12] is 98%. In addition, the inhibition of growth at 1 µg/mL in data set [13] came out at 98.7%. Also, in data set [14], the inhibition of growth at 0.25 µg/mL came out at 98.7%.

Take `O=S(=O)(CCn1nnc(-c2ccccc2Cl)n1)c1ccccc1`: the inhibition of growth at 4 µg/mL in data set [5] turned out to be 97.8%. For the same compound, the inhibition of growth at 0.5 µg/mL in [6] was found to be 98.2%. For the same compound, the inhibition of growth at 0.0625 µg/mL in [7] is 98.4%. For the same compound, the growth inhibition (GI) came out at 43.4% in data set [1], 31.2% in [3] and 35.6% in [4]. In data set [2], the inhibition of growth at 64 µg/mL was 17.1%. Besides, the inhibition of growth at 0.0313 µg/mL in [8] is 98.6%. In addition, the inhibition of growth at 0.125 µg/mL in data set [9] was 97.8%. Besides, the inhibition of growth at 16 µg/mL in data set [10] was 98.5%. In data set [11], the inhibition of growth at 8 µg/mL was 98%. For the same compound, the inhibition of growth at 2 µg/mL in data set [12] turned out to be 97.9%. Also, the inhibition of growth at 1 µg/mL in data set [13] was found to be 98.2%. The inhibition of growth at 0.25 µg/mL in data set [14] was 98.1%.

In the case of `c1ccc(-c2nnn(CCCSc3nc4ccccc4o3)n2)cc1`, the growth inhibition (GI) in data set [1] is 43.4%; in [3], 6%; in [4] it was 27%. In addition, the inhibition of growth at 64 µg/mL in data set [2] came to 20.6%.

By MIC is commonly meant the smallest concentration in the dilution series that meets the test's criterion for growth inhibition.
